According to patent US6355799B1, “Substituted benzene compounds, process for their preparation, and herbicidal and defoliant compositions containing them” (ISK Americas Incorporated, priority 1997, dated 2002):

How the values were obtained:
Assay type in all cases: in vivo
[1] = tested on: large crabgrass (Digitaria sanguinalis, DIGSA); assay: Pre-emerge test, greenhouse herbicide activity screening; settings: pre-emerge, phytotoxicity rating 0-100 at 14 days after application
How it was run: (§1)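 Sandy loam pots; pre-emerge: sown 1 d pre-spray, surface-watered after, then bottom-watered. Post-emerge: sown 8–21 d before, 2–3 leaf stage, + 0.25% v/v NIS, bottom-watered. Acetone, 187 l/ha track spray, 15–1000 g ai/ha. 0–100 injury score, day 14.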

[2] = tested on: barnyardgrass (Echinochloa crus-galli, ECHCG); assay: as above; settings: pre-emerge, phytotoxicity rating 0-100 at 14 days after application
How it was run: as §1

[3] = tested on: ivyleaf morningglory (Ipomoea hederacea, IPOHE); assay: as above; settings: pre-emerge, phytotoxicity rating 0-100 at 14 days after application
How it was run: as §1

[4] = tested on: sicklepod (Cassia obtusifolia, CASOB); assay: as above; settings: pre-emerge, phytotoxicity rating 0-100 at 14 days after application
How it was run: as §1

[5] = tested on: green foxtail (Setaria viridis, SETVI); assay: as above; settings: pre-emerge, phytotoxicity rating 0-100 at 14 days after application
How it was run: as §1

[6] = tested on: lambsquarters (Chenopodium album, CHEAL); assay: as above; settings: pre-emerge, phytotoxicity rating 0-100 at 14 days after application
How it was run: as §1

[7] = tested on: velvetleaf (Abutilon theophrasti, ABUTH); assay: as above; settings: pre-emerge, phytotoxicity rating 0-100 at 14 days after application
How it was run: as §1

[8] = tested on: redroot pigweed (Amaranthus retroflexus, AMARE); assay: as above; settings: pre-emerge, phytotoxicity rating 0-100 at 14 days after application
How it was run: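 Herbicidal damage is scored 0 (none) to 100 (complete plant death) two weeks after a simulated field spray. Rates span 15–1000 g ai/ha, delivered in acetone at 187 l/ha. For post-emergence treatments, plants have 2–3 leaves and the spray carries 0.25% v/v non-ionic surfactant.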

[9] = tested on: large crabgrass (Digitaria sanguinalis, DIGSA); assay: Post-emerge test, greenhouse herbicide activity screening; settings: post-emerge, phytotoxicity rating 0-100 at 14 days after application
How it was run: as §1

[10] = tested on: barnyardgrass (Echinochloa crus-galli, ECHCG); assay: as above; settings: post-emerge, phytotoxicity rating 0-100 at 14 days after application
How it was run: as §1

[11] = tested on: ivyleaf morningglory (Ipomoea hederacea, IPOHE); assay: as above; settings: post-emerge, phytotoxicity rating 0-100 at 14 days after application
How it was run: as §1

[12] = tested on: johnsongrass (Sorghum halepense, SORHA); assay: as above; settings: post-emerge, phytotoxicity rating 0-100 at 14 days after application
How it was run: as §1

[13] = tested on: sicklepod (Cassia obtusifolia, CASOB); assay: as above; settings: post-emerge, phytotoxicity rating 0-100 at 14 days after application
How it was run: as §1

[14] = tested on: green foxtail (Setaria viridis, SETVI); assay: as above; settings: post-emerge, phytotoxicity rating 0-100 at 14 days after application
How it was run: as §1

[15] = tested on: lambsquarters (Chenopodium album, CHEAL); assay: as above; settings: post-emerge, phytotoxicity rating 0-100 at 14 days after application
How it was run: as §1

[16] = tested on: redroot pigweed (Amaranthus retroflexus, AMARE); assay: as above; settings: post-emerge, phytotoxicity rating 0-100 at 14 days after application
How it was run: as §1

[17] = tested on: velvetleaf (Abutilon theophrasti, ABUTH); assay: as above; settings: post-emerge, phytotoxicity rating 0-100 at 14 days after application
How it was run: as §1

[18] = tested on: field corn (Zea mays L., var. Dekalb 535, CORN); assay: Pre-emerge test, crop safety; settings: crop damage, pre-emerge, phytotoxicity rating 0-100 at 14 days after application
How it was run: (§2)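 Visual ratings on a 0-100 scale (0 no damage, 100 all plants dead) were taken at 14 days after treatment. Rates of 15-1000 g ai/ha in acetone, 187 l/ha, were sprayed onto soil one day after planting (pre-emerge) or onto 2-3 leaf plants with 0.25% v/v surfactant (post-emerge).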

[19] = tested on: upland rice (Oryza sp., var. Tebonnet, RICE); assay: Pre-emerge test, crop safety; settings: crop damage, pre-emerge, phytotoxicity rating 0-100 at 14 days after application
How it was run: as §2

[20] = tested on: field corn (Zea mays L., var. Dekalb 535, CORN); assay: Post-emerge test, crop safety; settings: post-emerge, crop damage rating 0-100 at 14 days after application
How it was run: as §1

[21] = tested on: upland rice (Oryza sp., var. Tebonnet, RICE); assay: Post-emerge test, crop safety; settings: post-emerge, crop damage rating 0-100 at 14 days after application
How it was run: as §1

Structure (SMILES): Cc1nn(-c2c(Cl)cc(Cl)cc2NC(=O)c2ccc(F)cc2F)c(=O)n1C(F)F [Compound 6-13]
- Pre-emerge Herbicidal Activity DIGSA ([1]; rate 63 g ai/ha): 80
- Pre-emerge Herbicidal Activity DIGSA ([1]; rate 250 g ai/ha): 90
- Pre-emerge Herbicidal Activity ECHCG ([2]; rate 63 g ai/ha): 10
- Pre-emerge Herbicidal Activity ECHCG ([2]; rate 250 g ai/ha): 40
- Pre-emerge Herbicidal Activity IPOHE ([3]; rate 63 g ai/ha): 0
- Pre-emerge Herbicidal Activity IPOHE ([3]; rate 250 g ai/ha): 0
- Pre-emerge Herbicidal Activity CASOB ([4]; rate 63 g ai/ha): 0
- Pre-emerge Herbicidal Activity CASOB ([4]; rate 250 g ai/ha): 0
- Pre-emerge Herbicidal Activity SETVI ([5]; rate 63 g ai/ha): 80
- Pre-emerge Herbicidal Activity SETVI ([5]; rate 250 g ai/ha): 100
- Pre-emerge Herbicidal Activity CHEAL ([6]; rate 63 g ai/ha): 40
- Pre-emerge Herbicidal Activity CHEAL ([6]; rate 250 g ai/ha): 100
- Pre-emerge Herbicidal Activity ABUTH ([7]; rate 63 g ai/ha): 10
- Pre-emerge Herbicidal Activity ABUTH ([7]; rate 250 g ai/ha): 40
- Pre-emerge Herbicidal Activity AMARE ([8]; rate 63 g ai/ha): 60
- Pre-emerge Herbicidal Activity AMARE ([8]; rate 250 g ai/ha): 100
- Post-emerge Herbicidal Activity DIGSA ([9]; 63 g ai/ha): 20
- Post-emerge Herbicidal Activity DIGSA ([9]; 250 g ai/ha): 30
- Post-emerge Herbicidal Activity ECHCG ([10]; 63 g ai/ha): 0
- Post-emerge Herbicidal Activity ECHCG ([10]; 250 g ai/ha): 30
- Post-emerge Herbicidal Activity IPOHE ([11]; 63 g ai/ha): 50
- Post-emerge Herbicidal Activity IPOHE ([11]; 250 g ai/ha): 60
- Post-emerge Herbicidal Activity SORHA ([12]; 63 g ai/ha): 0
- Post-emerge Herbicidal Activity SORHA ([12]; 250 g ai/ha): 10
- Post-emerge Herbicidal Activity CASOB ([13]; 63 g ai/ha): 0
- Post-emerge Herbicidal Activity CASOB ([13]; 250 g ai/ha): 30
- Post-emerge Herbicidal Activity SETVI ([14]; 63 g ai/ha): 50
- Post-emerge Herbicidal Activity SETVI ([14]; 250 g ai/ha): 90
- Post-emerge Herbicidal Activity CHEAL ([15]; 63 g ai/ha): 85
- Post-emerge Herbicidal Activity CHEAL ([15]; 250 g ai/ha): 90
- Post-emerge Herbicidal Activity AMARE ([16]; 63 g ai/ha): 70
- Post-emerge Herbicidal Activity AMARE ([16]; 250 g ai/ha): 90
- Post-emerge Herbicidal Activity ABUTH ([17]; 63 g ai/ha): 100
- Post-emerge Herbicidal Activity ABUTH ([17]; 250 g ai/ha): 90
- Pre-emerge Herbicidal Activity CORN ([18]; rate 63 g ai/ha): 0
- Pre-emerge Herbicidal Activity CORN ([18]; rate 250 g ai/ha): 0
- Pre-emerge Herbicidal Activity RICE ([19]; rate 63 g ai/ha): 0
- Pre-emerge Herbicidal Activity RICE ([19]; rate 250 g ai/ha): 10
- Post-emerge Herbicidal Activity CORN ([20]; 63 g ai/ha): 15
- Post-emerge Herbicidal Activity CORN ([20]; 250 g ai/ha): 20
- Post-emerge Herbicidal Activity RICE ([21]; 63 g ai/ha): 10
- Post-emerge Herbicidal Activity RICE ([21]; 250 g ai/ha): 30

Structure (SMILES): Cc1nn(-c2c(F)cc(Cl)cc2NC(=O)c2ccc(F)cc2F)c(=O)n1C(F)F [Compound 6-23]
- Pre-emerge Herbicidal Activity DIGSA ([1]; rate 63 g ai/ha): 0
- Pre-emerge Herbicidal Activity DIGSA ([1]; rate 250 g ai/ha): 10
- Pre-emerge Herbicidal Activity ECHCG ([2]; rate 63 g ai/ha): 0
- Pre-emerge Herbicidal Activity ECHCG ([2]; rate 250 g ai/ha): 0
- Pre-emerge Herbicidal Activity IPOHE ([3]; rate 63 g ai/ha): 0
- Pre-emerge Herbicidal Activity IPOHE ([3]; rate 250 g ai/ha): 20
- Pre-emerge Herbicidal Activity CASOB ([4]; rate 63 g ai/ha): 0
- Pre-emerge Herbicidal Activity CASOB ([4]; rate 250 g ai/ha): 10
- Pre-emerge Herbicidal Activity SETVI ([5]; rate 63 g ai/ha): 0
- Pre-emerge Herbicidal Activity SETVI ([5]; rate 250 g ai/ha): 60
- Pre-emerge Herbicidal Activity CHEAL ([6]; rate 63 g ai/ha): 30
- Pre-emerge Herbicidal Activity CHEAL ([6]; rate 250 g ai/ha): 100
- Pre-emerge Herbicidal Activity ABUTH ([7]; rate 63 g ai/ha): 0
- Pre-emerge Herbicidal Activity ABUTH ([7]; rate 250 g ai/ha): 50
- Pre-emerge Herbicidal Activity AMARE ([8]; rate 63 g ai/ha): 50
- Pre-emerge Herbicidal Activity AMARE ([8]; rate 250 g ai/ha): 100
- Post-emerge Herbicidal Activity DIGSA ([9]; 63 g ai/ha): 0
- Post-emerge Herbicidal Activity DIGSA ([9]; 250 g ai/ha): 10
- Post-emerge Herbicidal Activity ECHCG ([10]; 63 g ai/ha): 0
- Post-emerge Herbicidal Activity ECHCG ([10]; 250 g ai/ha): 0
- Post-emerge Herbicidal Activity IPOHE ([11]; 63 g ai/ha): 10
- Post-emerge Herbicidal Activity IPOHE ([11]; 250 g ai/ha): 30
- Post-emerge Herbicidal Activity SORHA ([12]; 63 g ai/ha): 0
- Post-emerge Herbicidal Activity SORHA ([12]; 250 g ai/ha): 0
- Post-emerge Herbicidal Activity CASOB ([13]; 63 g ai/ha): 0
- Post-emerge Herbicidal Activity CASOB ([13]; 250 g ai/ha): 10
- Post-emerge Herbicidal Activity SETVI ([14]; 63 g ai/ha): 0
- Post-emerge Herbicidal Activity SETVI ([14]; 250 g ai/ha): 30
- Post-emerge Herbicidal Activity CHEAL ([15]; 63 g ai/ha): 20
- Post-emerge Herbicidal Activity CHEAL ([15]; 250 g ai/ha): 70
- Post-emerge Herbicidal Activity AMARE ([16]; 63 g ai/ha): 20
- Post-emerge Herbicidal Activity AMARE ([16]; 250 g ai/ha): 85
- Post-emerge Herbicidal Activity ABUTH ([17]; 63 g ai/ha): 40
- Post-emerge Herbicidal Activity ABUTH ([17]; 250 g ai/ha): 55
- Pre-emerge Herbicidal Activity CORN ([18]; rate 63 g ai/ha): 0
- Pre-emerge Herbicidal Activity CORN ([18]; rate 250 g ai/ha): 0
- Pre-emerge Herbicidal Activity RICE ([19]; rate 63 g ai/ha): 0
- Pre-emerge Herbicidal Activity RICE ([19]; rate 250 g ai/ha): 0
- Post-emerge Herbicidal Activity CORN ([20]; 63 g ai/ha): 0
- Post-emerge Herbicidal Activity CORN ([20]; 250 g ai/ha): 15
- Post-emerge Herbicidal Activity RICE ([21]; 63 g ai/ha): 0
- Post-emerge Herbicidal Activity RICE ([21]; 250 g ai/ha): 15
